This note sets out measurements from PubChem BioAssay (NCI).

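Protocol summary: plate cells (96-well), add compound at 5 concentrations, incubate 48 h, interpolate endpoints linearly. GI50 is the concentration that inhibits growth by half. At the TGI there is no net growth.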

Some test systems named below: LOX IMVI melanoma; MALME-3M melanoma; UACC-257 melanoma; CCRF-CEM leukemia; SNB-19 CNS; U251 CNS; SNB-75 CNS; OVCAR-4 ovarian; OVCAR-5 ovarian; DU-145 prostate.
Common to all, as to assay: NCI tumour cell line growth inhibition, 48 h

With `O=C1CSc2cc([N+](=O)[O-])ccc2N1`, the TGI with LOX IMVI melanoma, in the assay with MALME-3M melanoma, with UACC-257 melanoma, in the assay with CCRF-CEM leukemia, with SNB-19 CNS and in the assay with U251 CNS was above 100 µM throughout. In addition, the TGI in the assay with SNB-75 CNS, in the assay on OVCAR-4 ovarian and in the assay with OVCAR-5 ovarian was above 100 µM throughout.
As to `NCCCNCCCCN1CC1`, the TGI in the assay on LOX IMVI melanoma is 11.8 µM; in the assay with DU-145 prostate, 6.17 µM; with UACC-257 melanoma, 4.71 µM; in the assay on SNB-19 CNS, above 23.8 µM; in the assay with U251 CNS, above 26.2 µM; in the assay with SNB-75 CNS, 4.3 µM. The figures for the TGI in the assay on OVCAR-4 ovarian and in the assay on OVCAR-5 ovarian were 1.53 µM and above 33.8 µM, respectively.
For `O=C(N/N=C/c1cc(Br)cc(Br)c1[O-])c1ccccc1O.O=C(N/N=C/c1cc(Br)cc(Br)c1[O-])c1ccccc1O.[Ni+2]`, the TGI in the assay with LOX IMVI melanoma was 1.84 µM; in the assay with MALME-3M melanoma, 1.98 µM; in the assay on UACC-257 melanoma, 2.28 µM; in the assay with CCRF-CEM leukemia, above 100 µM; in the assay with SNB-19 CNS, 3.67 µM; in the assay on U251 CNS, 1.84 µM. The TGI with SNB-75 CNS worked out at 4.9 µM; in the assay on OVCAR-4 ovarian, 0.825 µM; in the assay with OVCAR-5 ovarian it was 1.34 µM. For the same molecule, the GI50 in the assay on CCRF-CEM leukemia was 0.537 µM.
On to `NC(CSSCC(N)Cc1ccccc1)Cc1ccccc1` (stereo not given), for which the TGI with LOX IMVI melanoma is 84.4 µM; with MALME-3M melanoma, above 100 µM; in the assay on UACC-257 melanoma, above 100 µM; with CCRF-CEM leukemia, above 100 µM; in the assay with SNB-19 CNS, above 100 µM; in the assay with U251 CNS, above 100 µM. For the same molecule, the TGI in the assay with OVCAR-4 ovarian and in the assay on OVCAR-5 ovarian was above 100 µM each time.
For the molecule `COc1ccc(C[C@H](N)C(=O)N2C[C@@H](CO)C[C@@H](n3ccc(=O)[nH]c3=O)C2)cc1`, the TGI in the assay with LOX IMVI melanoma, with MALME-3M melanoma, with CCRF-CEM leukemia, in the assay with SNB-19 CNS, with U251 CNS and in the assay on OVCAR-4 ovarian was above 100 µM throughout. Further, the TGI in the assay on OVCAR-5 ovarian is above 100 µM.
As for `O=c1oc2ccccc2c(O)c1C(C/C(CCN1CCCC1)=N\Nc1ccccc1)c1ccccc1` (stereo not given), the TGI with LOX IMVI melanoma was above 100 µM; in the assay on MALME-3M melanoma, above 100 µM; in the assay on UACC-257 melanoma it was above 100 µM; with CCRF-CEM leukemia, 69.5 µM; in the assay on SNB-19 CNS it was above 100 µM; in the assay with U251 CNS, above 100 µM. In addition, the TGI in the assay on SNB-75 CNS, in the assay on OVCAR-4 ovarian and in the assay on OVCAR-5 ovarian was above 100 µM throughout.
As for `NC1CC=C(COC(=O)C(O)(c2ccccc2)C2CC2)CC1` (stereo not given), the TGI with LOX IMVI melanoma, in the assay on MALME-3M melanoma, in the assay on DU-145 prostate, in the assay with UACC-257 melanoma, in the assay with SNB-19 CNS and in the assay with U251 CNS was above 100 µM throughout. For the same molecule, the TGI in the assay on SNB-75 CNS and with OVCAR-5 ovarian was above 100 µM throughout.
Turning to `CCOC(=O)N1CCC(=C2c3ccc(Cl)cc3CCc3cccnc32)CC1`, the TGI is 74.6 µM with LOX IMVI melanoma; 24.7 µM in the assay on MALME-3M melanoma; 26.9 µM with DU-145 prostate; 29.6 µM in the assay with UACC-257 melanoma; above 100 µM in the assay with CCRF-CEM leukemia; 17.1 µM in the assay with OVCAR-4 ovarian. In the assay on OVCAR-5 ovarian, the TGI is 37.9 µM.
As for `COc1ccc(N2C(=O)C3c4[nH]c5ccccc5c4C4CCCCC4C3C2=O)cc1` (stereo not given), the TGI in the assay on LOX IMVI melanoma was above 100 µM; with MALME-3M melanoma, 25.8 µM; in the assay with UACC-257 melanoma, above 100 µM; with CCRF-CEM leukemia, 29.1 µM; in the assay with SNB-19 CNS, above 100 µM; in the assay with U251 CNS it was 38.6 µM. Besides, the TGI with SNB-75 CNS is 17.5 µM; with OVCAR-4 ovarian it was 23.6 µM; with OVCAR-5 ovarian, above 100 µM.
As for `COc1ccc(C2=NN=C3C(c4ccccc4)=Nc4ccccc4N3C2)cc1`, the TGI is above 100 µM in the assay with LOX IMVI melanoma; 66.3 µM with MALME-3M melanoma; 70.7 µM in the assay on DU-145 prostate; above 100 µM in the assay with UACC-257 melanoma; 8.24 µM with CCRF-CEM leukemia; above 100 µM in the assay on SNB-19 CNS. The TGI in the assay on U251 CNS is above 100 µM; with OVCAR-4 ovarian, 45.6 µM; in the assay on OVCAR-5 ovarian, above 100 µM.
For `COC1OC2=CCC3C(=O)NC(=O)C3C2[C@H](OCc2ccccc2)C1OCc1ccccc1` (stereo not given in full), the TGI in the assay with LOX IMVI melanoma was determined as 3.22 µM; in the assay on MALME-3M melanoma, 3.26 µM; in the assay on UACC-257 melanoma it was 3.68 µM; in the assay with U251 CNS, 33.3 µM; in the assay with SNB-75 CNS, 31.5 µM; with OVCAR-4 ovarian, 5.32 µM. This molecule had a TGI with OVCAR-5 ovarian of 29.1 µM.
Take `CC1(C)N=C(c2ccccn2)C(c2ccccn2)=NC1(C)C`: the TGI with LOX IMVI melanoma, in the assay with MALME-3M melanoma, with UACC-257 melanoma, in the assay with CCRF-CEM leukemia, in the assay on SNB-19 CNS and in the assay on U251 CNS was above 100 µM throughout. The TGI in the assay with OVCAR-4 ovarian and with OVCAR-5 ovarian was above 100 µM in each case.
With `CNc1ncnc2c1cnn2Cc1cn(COCC(O)CO)nn1` (stereo not given), the TGI in the assay with LOX IMVI melanoma, in the assay on DU-145 prostate, in the assay on UACC-257 melanoma, in the assay with CCRF-CEM leukemia, in the assay on SNB-19 CNS and in the assay on U251 CNS was above 100 µM each time. For the same molecule, the TGI in the assay on OVCAR-4 ovarian and with OVCAR-5 ovarian was above 100 µM throughout.
With `COc1ccc2c(c1)OC[C@@H]1c3cc(O)c(OCc4ccccc4)cc3O[C@H]21`, the TGI in the assay on LOX IMVI melanoma is above 100 µM; with MALME-3M melanoma it was 85.7 µM; in the assay on UACC-257 melanoma, 51.4 µM; with CCRF-CEM leukemia it was above 100 µM; with SNB-19 CNS it was above 100 µM; in the assay with U251 CNS, 68.4 µM. Moreover, the TGI with SNB-75 CNS is 65.4 µM; in the assay with OVCAR-4 ovarian, 60.3 µM; in the assay with OVCAR-5 ovarian, above 100 µM.
For the molecule `Cn1c(O)c(C=Nc2ccccc2Cl)c(=O)n(C)c1=O`, the TGI was 32.2 µM in the assay with LOX IMVI melanoma; above 100 µM in the assay on MALME-3M melanoma; above 100 µM in the assay with UACC-257 melanoma; 49 µM in the assay on CCRF-CEM leukemia; 78.4 µM with SNB-19 CNS; above 100 µM in the assay with U251 CNS. Moreover, the TGI was above 100 µM with SNB-75 CNS, 98.6 µM in the assay with OVCAR-4 ovarian and 63.2 µM in the assay with OVCAR-5 ovarian.
